Data published in PMC9410094 (Marine Drugs, 2022).
≈ marks a conversion by molar mass, not a printed value. Positions of bridges follow the written chain, without caps; N, C: chain ends. Residues, ends and D or L forms follow the SMILES beside them.

Legend:
E. coli ATCC 25922 = assay: Mice septicemia model, survival; conditions: BALB/c mice, n = 8, E. coli ATCC 25922 i.p. with 2.5% mucin
Procedure: Ciprofloxacin (the single dose of 10 mg/kg) and saline were used as the positive and negative controls, respectively. […] Mice were controlled once daily for their health status during 7 post-infection days.
Then, we examined an efficacy of AMPs in the mice septicemia model using 8 animals in a group (Figure 10B).
Experiments were performed with female 8–10-week-old BALB/c mice (22–24 g, “Andreevka” laboratory animal nursery FMBA, Russia). […] All animal experiments were performed at the State Research Center for Applied Microbiology and Biotechnology (SRCAMB) in Obolensk, Russia. The animals were housed in groups of 5 in polycarbonate cages. Food and water were provided ad libitum.
A total of 4 groups with 8 animals were used. The first group received ciprofloxacin (Sigma, Kawasaki, Kanagawa, Japan) administered i.p. once (1 h post-infection) at a dose of 10 mg/kg. The second group received saline (as a vehicle control) administered i.p. once (1 h post-infection). […] Survival was monitored for 7 days. After that survived animals were euthanized by CO2 asphyxiation.

[1] = system: P. aeruginosa PAO1 mature biofilms; assay: Effect on mature biofilms, viability by MTT; conditions: P. aeruginosa PAO1 pre-formed biofilm, 2-h exposure
Procedure: Biofilm viability was measured by tetrazolium salt reduction (right panel). Values are presented as means ± the standard deviation (SD) of three independent experiments.
The effect of peptides on pre-formed biofilms was evaluated as follows. Biofilms were grown on a 96-well plate at 32 °C for 24 h and stirred at 120 rpm to ensure biofilm formation primarily on the wall of the wells. […] Bacterial survival in the biofilms after 2-h exposure was evaluated via a MTT assay after incubation with a tested peptide. Then, wells were rinsed with sterile water, treated with an MTT solution (Sigma, Kawasaki, Kanagawa, Japan) in PBS, and incubated for 4 h at 37 °C. Next, the medium was removed. The resulting formazan crystals were dissolved in a mixture of EtOH and DMSO (1:1) for 10 min. The optical density of the solution was measured at 570 nm. Bacterial survival was calculated as percent relative to samples without antimicrobial agent. All data were obtained from at least three independent experiments in 3 repetitions.

E. coli ML-35p = conditions: for Fold reduction of antibacterial activity in the presence of serum: MHB + 0.9% NaCl with 25% FBS versus without
Procedure: Initially, antimicrobial activity of abarenicin and UuBRI-21 was evaluated against the reference strain of E. coli (ML-35p) under various conditions (Table 1). Minimal inhibitory concentrations (MICs) were determined via two-fold serial dilutions in 96-well polystyrene plates. Serial dilutions were made in 0.1% bovine serum albumin (BSA) to minimize the absorption of peptides on the surface of plate wells. Mueller–Hinton broth (MHB) supplemented with 0.9% NaCl was used as the standardized medium.
(§1) Bacterial cultures were grown in MHB at 37 °C until the culture reached an optical density OD600 of 1.0 and diluted with the broth so that to reach a final cell concentration of 10^6 CFU/mL. Then 50 μL of the test culture were added to 50 μL of aqueous solutions of the peptides, previously diluted in 0.1% sterilized bovine serum albumin (BSA) to reduce non-specific binding of the peptides to the surface of the plates. Next, the plate was incubated for 24 h at 37 °C and 950 rpm on the plate thermoshaker (Biosan). The values of the minimum inhibitory concentrations (MIC) were determined as the minimum concentration of the peptide, at which there is no culture growth. The results were expressed as the median values of three independent experiments performed in triplicate.

E. coli 3421/E19 = assay: Neutropenic mice peritonitis model; type: in vivo, BALB/c mice; conditions: for Efficacy in the neutropenic peritonitis model (in words): single i.v. dose of 10 mg/kg, E. coli 3421/E19
Procedure: Immune-deficient mice were inoculated intraperitoneally (i.p.) with bacterial suspension. Antimicrobial agent was administered 1 h post-infection, and colony counts in blood and peritoneal fluid (PF) were determined 5 h later.
(A) The mice peritonitis model. […] Horizontal bars indicate means ± SD.
Food and water were provided ad libitum.
CFU counts were determined from blood and peritoneal fluid (PF) 5 h after treatment. The mice were euthanized by CO2 asphyxiation and blood was collected by axillary cut down. A total of 2 mL sterile saline was injected i.p. and the abdomen gently massaged before it was opened, fluid sampled with a pipette, serially diluted and placed on Endo agar supplemented with 20 µg/mL of tetracycline for CFU identification.

Gram-positive bacteria = type: cell-based; conditions: 24 h
Procedure: as §1, with “The antimicrobial activity of the peptides was determined via the method of two-fold serial dilutions in sterile 96-well flat-bottom polystyrene microplates (Eppendorf #0030730011) in Mueller–Hinton broth (MHB, Sigma, Kawasaki, Kanagawa, Japan) supplemented with 0.9% NaCl. Bacterial” for “Bacterial”

[2] = RP-HPLC retention time as measure of hydrophobicity; type: physicochemical; conditions: chromatographic, semipreparative RP-HPLC, C18 column, linear gradient 5 to 80% (v/v) acetonitrile in water with 0.1% TFA within 50 minutes; used as measure of hydrophobicity
Procedure: Table S1. Characteristics of the recombinant AMPs.
1 Mean Kyte–Doolittle hydrophobicity index (GRAVY) was calculated using the Expasy ProtParam tool. The maximum and minimum values of this index are +4.5 and -4.5 for poly-Ile and poly-Arg sequences, respectively. 2 Retention times were measured using semipreparative reversed-phase high-performance liquid chromatography (RP - HPLC) on a C18 column with a linear gradient from 5 to 80% ( v/v) acetonitrile in water containing 0.1% trifluoroacetic […]
acid (TFA) within 50 minutes. […]

Gram-negative bacteria = assay: Geometric mean of MICs, Gram-negative panel; type: cell-based
Procedure: as §1, with “The antimicrobial activity of the peptides was determined via the method of two-fold serial dilutions in sterile 96-well flat-bottom polystyrene microplates (Eppendorf #0030730011) in Mueller–Hinton broth (MHB, Sigma, Kawasaki, Kanagawa, Japan) supplemented with 0.9% NaCl. Bacterial” for “Bacterial”

human red blood cells = type: cell-based
Procedure: Figure 4 (A) Hemolytic effect on human red blood cells after 2 h incubation (hemoglobin release assay). (B) Cytotoxicity toward transformed human embryonic kidney cells after 20 h incubation (MTT-assay). The positive control used was 0.1% Triton X-100 and sterile PBS as a negative control. Melittin was used as an additional positive control. The data are presented as the mean ± SD of three independent experiments.
The hemolytic activity of compounds was performed using human red blood cells (hRBS) of healthy donor. Fresh blood was centrifuged to separate the erythrocyte fraction for 15 min at 500 g and washed three times with cold phosphate-buffered saline (PBS) (pH 7.4), after which an 8% (v/v) suspension of erythrocytes in PBS was prepared. Then, 50 µL of erythrocyte suspension was added to the test peptides, previously were dissolved in 50 µL of 0.1% BSA. The plate was incubated for 1.5 h at 37 °C and 950 rpm on the plate thermoshaker. After incubation, the plates were centrifuged for 15 min at 1000 g to settle intact erythrocytes. Next, aliquots of the supernatant were transferred to another plate to measure the amount of hemoglobin release by the absorbance of the solution at 405 nm. As “zero lysis” we used the supernatant obtained after centrifugation of erythrocytes incubated in a PBS solution without the addition of a peptide. As “100% lysis”, we used the supernatant obtained after centrifugation of erythrocytes incubated in a 0.1% Triton X-100, causing their complete lysis. The assays were conducted three times. The quantitative data were presented as an average means with standard deviations. Hemolysis(%)=OD405(compound)−OD405(zerolysis)/OD405(100%lysis)−OD405(zerolysis)×100%

Structure (SMILES) | Fold reduction of antibacterial activity in the presence of serum (E. coli ML-35p) [fold] | Efficacy in the neutropenic peritonitis model (in words) (E. coli 3421/E19) | Minimum inhibitory concentration (MIC): Gram-positive Geometric mean (Gram-positive bacteria) [µM] | RP-HPLC Retention Time [2] [min] | Hemolytic activity (in words) (human red blood cells) | also measured
O=C(O)c1cn(C2CC2)c2cc(N3CCNCC3)c(F)cc2c1=O [ciprofloxacin, reference compound] | – | – | – | – | – | Survival (in words) (E. coli ATCC 25922; single i.p. dose of 10 mg/kg 1 h post-infection): survival of all mice; Effect on bacteria inside mature biofilm (in words) [1]: not able to impair bacteria inside biofilm
CC(C)[C@@H]1NC(=O)[C@H](Cc2ccc(O)cc2)NC(=O)[C@H](Cc2c[nH]c3ccccc23)NC(=O)[C@@H](NC(=O)[C@H](Cc2ccccc2)NC(=O)CN)CSSC[C@@H](C(=O)N[C@@H](CC(N)=O)C(=O)O)NC(=O)[C@H](CCCNC(=N)N)NC(=O)[C@H](CCCNC(=N)N)NC(=O)[C@H](Cc2ccc(O)cc2)NC(=O)[C@@H]2CSSC[C@H](NC1=O)C(=O)N[C@@H](C)C(=O)N[C@@H](CCCNC(=N)N)C(=O)N[C@@H](CCCNC(=N)N)C(=O)N[C@@H](CC(N)=O)C(=O)NCC(=O)N[C@@H](C)C(=O)N[C@@H](CCCNC(=N)N)C(=O)N[C@@H](C(C)C)C(=O)N2 [AA139, reference compound] (H-GFCWYVCARRNGARVCYRRCN-OH; disulfide 3-20, 7-16) | 4 | effective | 4 (≈ 10.2 µg/mL) | 25.67 | – | Minimum Inhibitory Concentration, MHB + 0.9% NaCl + 25% FBS (E. coli ML-35p; Table 1, medium with 25% fetal bovine serum): 1 µM; Minimum Inhibitory Concentration, MHB + 0.9% NaCl (E. coli ML-35p; Table 1, without FBS, dilutions in 0.1% BSA): 0.25 µM; Bacterial burden in mice blood (in words) (E. coli 3421/E19; neutropenic BALB/c mice, n = 5, i.p. infection, single i.v. dose 1 h post-infection (AMPs 10 mg/kg, polymyxin B 5 mg/kg), CFU 5 h after treatment): complete reduction; Reduction of the CFU level in peritoneal fluid (PF) (E. coli 3421/E19; neutropenic BALB/c mice, n = 5, single i.v. dose (AMPs 10 mg/kg, polymyxin B 5 mg/kg), CFU 5 h after treatment): ~ 5 log; Therapeutic efficacy (survival) after one-week experiment (E. coli ATCC 25922; peptide i.p. 10 mg/kg at 1 and 4 h post-infection, 7 days): 87.5%
CC[C@H](C)[C@@H]1NC(=O)[C@H](CCCNC(=N)N)NC(=O)[C@H](C)NC(=O)CNC(=O)[C@H](CC(N)=O)NC(=O)[C@H](CCCNC(=N)N)NC(=O)[C@H](CCCNC(=N)N)NC(=O)[C@H](C)NC(=O)[C@@H]2CSSC[C@H](NC1=O)C(=O)N[C@@H](Cc1ccc(O)cc1)C(=O)N[C@@H](CCCNC(=N)N)C(=O)N[C@@H](CCCNC(=N)N)C(=O)N[C@H](C(=O)N[C@@H](CC(N)=O)C(=O)O)CSSC[C@H](NC(=O)[C@H](Cc1ccc(O)cc1)NC(=O)CN)C(=O)N[C@@H](Cc1ccccc1)C(=O)N[C@@H]([C@@H](C)O)C(=O)N[C@@H](C)C(=O)N2 [Ap11] (H-GYCFTACARRNGARICYRRCN-OH; disulfide 3-20, 7-16) | 4 | ineffective | 4 (≈ 9.8 µg/mL) | 25.17 | – | Fold reduction in the antimicrobial activity compared to Ap4 (Gram-negative bacteria; Gram-negative GM values): at least 5 fold; Residual viability of bacteria in mature biofilm ([1]; 16 µM): about 20%
CC[C@H](C)[C@@H]1NC(=O)[C@H](CCCNC(=N)N)NC(=O)[C@H](C(C)C)NC(=O)CNC(=O)[C@H](CC(N)=O)NC(=O)[C@H](CCCNC(=N)N)NC(=O)[C@H](Cc2ccc(O)cc2)NC(=O)[C@H](Cc2ccc(O)cc2)NC(=O)[C@@H]2CSSC[C@H](NC1=O)C(=O)N[C@@H](C(C)C)C(=O)N[C@@H](CCCNC(=N)N)C(=O)N[C@@H](Cc1ccc(O)cc1)C(=O)N[C@H](C(=O)N[C@@H](CC(N)=O)C(=O)O)CSSC[C@H](NC(=O)[C@H](Cc1ccccc1)NC(=O)CN)C(=O)NCC(=O)N[C@@H](Cc1ccc(O)cc1)C(=O)N[C@@H](C)C(=O)N2 [UuBRI-21] (H-GFCGYACYYRNGVRICVRYCN-OH; disulfide 3-20, 7-16) | 16 | lack of effectivity | 2 (≈ 4.95 µg/mL) | 28.48 | moderate hemolytic activity | –
CC[C@H](C)[C@@H]1NC(=O)[C@H](CCCNC(=N)N)NC(=O)[C@H](C(C)C)NC(=O)CNC(=O)[C@H](CC(N)=O)NC(=O)[C@H](CCCNC(=N)N)NC(=O)[C@H](CCCNC(=N)N)NC(=O)[C@H](Cc2ccc(O)cc2)NC(=O)[C@@H]2CSSC[C@H](NC1=O)C(=O)N[C@@H](Cc1ccc(O)cc1)C(=O)N[C@@H](CCCNC(=N)N)C(=O)N[C@@H](CCCNC(=N)N)C(=O)N[C@H](C(=O)N[C@@H](CC(N)=O)C(=O)O)CSSC[C@H](NC(=O)[C@H](Cc1ccc(O)cc1)NC(=O)CN)C(=O)N[C@@H](Cc1ccccc1)C(=O)N[C@@H]([C@@H](C)O)C(=O)N[C@@H](C)C(=O)N2 [Ap4] (H-GYCFTACYRRNGVRICYRRCN-OH; disulfide 3-20, 7-16) | – | – | 0.63 (≈ 1.62 µg/mL) | 24.79 | ability to lyse hRBCs is stronger | Minimum inhibitory concentration (MIC): Gram-negative Geometric mean (Gram-negative bacteria; geometric mean (GM) of MICs against the 14 Gram-negative strains of Figure 2): 0.13 µM (≈ 0.334 µg/mL)
